Test results from patent US20070015138A1, “Methods for identifying agents and conditions that modulate neurogenesis” (BrainCells, Inc., priority 2005, published 2007).
Entries after “also recorded” stand apart in the source; their conditions may differ. Like-named read-outs stand apart in the source and are kept apart here.

Experiments:
[1] = tested on: cultured human neural stem cells (hNSCs); assay: Automated differentiation assay using monolayer cultures, neuronal lineage (Tuj1 staining per Hoechst-counted cell); format: cell-based; details: for concentration at which the agent by itself affected neuronal differentiation / effect on differentiation along a neuronal lineage, agent by itself: no constitutive factor; for effect on differentiation along a neuronal lineage, agent by itself: normalized to neuronal positive control; for EC50: Homo sapiens, Neural stem cell; for effect on neuronal differentiation, AMPA combined with M6: AMPA about 3 nM to about 10 μM plus 10 μM M6 (cyclo-(Pro-Gly)), FIG. 5
Procedure: (§1) Cells were cultured in mitogen free test media or exposed to differentiating agents as described herein immediately upon plating of cells. Stable, differentiation-compatible culture may be used with automated equipment (like Perkin Elmer Evolution P3, Perkin Elmer Multiprobe II Plus and Bio-Tek ELx405 Select CW as non-limiting examples) to replace 50% of media with newly prepared media and differentiation agent between 3 to 4 days after commencement of the experiment.
(§2) Measurement of the resulting NSC differentiation may be performed by fixation and staining as described herein and subsequent use of automated equipment (InCell Analyzer high throughput imaging system) to take multiple pictures per well, at multiple wavelengths. Quantification of neuronal differentiation was performed by measuring the amount of Tuj1 staining and dividing the number by the number of cells as determined through automated counting of Hoechst stained cell nuclei. Quantification of astocytic differentiation was performed by measuring the amount of GFAP staining and dividing the number by the number of cells as determined through automated counting of Hoechst stained cell nuclei. […] An agent's effect on astrocyte or oligodendrocyte differentiation can be determined in a similar manner using other cell type specific antibodies, examples of which include GFAP (astrocytes), NF-200 (neurons), and O1 and O4 (oligodendrocytes).

[2] = tested on: human NSCs cultured as monolayers in 96-well plates; details: DMSO vehicle max 0.3%, FIG. 8
Procedure: Briefly, cells were cultured as described in Example 5 with the presence of histamine. The histamine was dissolved in DMSO as a vehicle, and cells were exposed to a maximum concentration of 0.3% vehicle. Cell number was determined by fixation and exposure of cells to Hoechst stain. Image acquisition was automated with the use of an InCell Analyzer 1000, and the number of cells determined by automated counting of stained nuclei. […] (see FIG. 8).
Toxic effects of agents can be determined in a similar manner. NSCs were exposed to BAY-60-7550 as described above and cell number was quantified.

[3] = tested on: cultured human neural stem cells (hNSCs); assay: Automated differentiation assay using monolayer cultures, astrocyte lineage (GFAP staining per Hoechst-counted cell); format: cell-based; details: for effect on differentiation along an astrocyte lineage (astrogenesis), agent alone: normalized to astrocyte positive control
Procedure: as §1, §2

[4] = tested on: Human NSCs plated as monolayers
Procedure: Human NSCs maintained as neurospheres are plated as monolayers on laminin/poly-L-lysine coated plates and assayed for proliferation and/or differentiation, as described in Examples 3 and 4, except that the test media is modified to include one or more neurotransmitters at various concentrations to facilitate detection of neurogenesis modulating agents. […] Proliferation is measured as the mean cell intensity per microscopic field of view, with the mean cell intensity for control experiments subtracted. Data is plotted as a dose response curve of dopamine with and without 2 independent concentrations of 5-HTP.

[5] = tested on: human NSCs in monolayer culture; assay: Automated proliferation (growth or trophism) assay using monolayer cultures, test media with mitogens; format: cell-based; details: control conditions, across a range of concentrations; FIG. 1B
Procedure: Sterile, tissue culture treated, clear bottom 96-well plates (e.g., Costar 3712) are coated 10 μg/ml poly-L-lysine and 50 μg/ml mouse Laminin, as described in Example 2. 10-15 neurospheres in maintenance media (see, Example 2) are transferred (estimated at 100,000 cells/sphere) to an eppendorf tube and enzymatically dissociated as described in Example 2. Approximately 50,000 cells are plated per 100 μl/well. The cells are allowed to attach by incubating for approximately one hour, and 100 μl/well of test compounds are added. […] Compounds are prepared using Perkin-Elmer MultiPROBE II PLUSHT EX (Protocol 8-point HumanCRC96-well) in test media (30% Hams F12 (Gibco 11765-062), 70% DMEM (Gibco 11965-118), 1% PSA (Gibco-BRL 15420-062), 1% N2 (Gibco-BRL 17502-048), 20 ng/ml EGF (Sigma E9644), 10 ng/ml LIF (Chemicon LIF100), 20 ng/ml bFGF (R and D 233-FB) and 5 μg/ml heparin (Sigma H3149)).
Each plate contains controls containing test media (positive control) and test media without growth factors (negative control). Plates are incubated at 37° C. and 5% CO2 for a total of 7 days. At day 4, the cell plates are aspirated and fresh compound/media is added. After incubation, the wells are washed 1× with 0.1M Tris-Buffered Saline (TBS), and incubated at room temperature for 30 minutes with 100 μl/well of Fixing/Nuclear staining solution (8 μg/ml Hoechst 33342 and 3.7% Formaldehyde in 0.1M TBS). […]

`COC(=O)C(c1ccccc1)C1CCCCN1` (stereo not drawn) [methylphenidate] was tested, and the “concentration at which the agent by itself affected neuronal differentiation” value [1] was “greater than 1 μM”, the “effect on differentiation along a neuronal lineage, agent by itself” value [1] was “only a slight effect” and the “effect on neuronal differentiation in combination with dopamine as constitutive factor” value ([1]; plus 10 μM dopamine) was “significantly enhanced the degree of neuronal differentiation”.
In the case of `NCCc1c[nH]cn1` [histamine], the “cell proliferation / cell growth (cell number), trophic effect” value [2] is reported as “promotes increased cell proliferation” and the “cell proliferation / cell growth (cell number), trophic effect” value ([2]; listed as Histamine) is reported as “promoted cell growth in a concentration-dependent manner”.
With `CC(N)Cc1ccccc1` (stereo not drawn) [amphetamine] the EC50 ([1]; plus 10 μM dopamine, FIG. 2B, read-out: EC50, neuronal differentiation in combination with dopamine) was ~30 µM, the “effect on differentiation along a neuronal lineage, agent by itself” value [1] was “did not have a significant effect” and the “effect on neuronal differentiation in combination with dopamine as constitutive factor” value ([1]; plus 10 μM dopamine) was “significantly enhanced neuronal differentiation”.
For `O=C1CC2(CCCC2)CC(=O)N1CCCCN1CCN(c2ncccn2)CC1` [buspirone], the “effect on differentiation along an astrocyte lineage (astrogenesis), agent alone” value [3] was “promotes differentiation into both neurons and astrocytes” and the “effect on differentiation along a neuronal lineage, agent by itself” value [1] was “promotes differentiation into both neurons and astrocytes”.
With `NCCc1ccc(O)c(O)c1` [dopamine] the “effect on NSC proliferation (mean cell intensity) with 10 μM 5-HTP” value ([4]; in the presence of 10 μM 5-HTP) was “substantially enhanced”, the “effect on NSC proliferation (mean cell intensity) with 30 μM 5-HTP” value ([4]; in the presence of 30 μM 5-HTP, particularly at higher test agent concentrations) was “further enhanced” and the “effect on NSC proliferation (mean cell intensity), test agent alone” value ([4]; media-only background subtracted) was “small dose-dependent effect”. For the same compound, the “concentration at which the agent by itself affected neuronal differentiation” value [1] was ≥ 1 µM, the “effect on differentiation along a neuronal lineage, agent by itself” value [1] was “minor effect; also recorded: only a slight effect” and the “effect on differentiation along a neuronal lineage, agent by itself” value ([1]; listed as Dopamine) was “did not promote differentiation”. The “effect on neuronal differentiation in combination with 5-HTP as constitutive factor” value ([1]; plus 10 μM or 30 μM 5-HTP, FIG. 4B) was “concentration-dependent increase in NSC differentiation; also recorded: significantly enhanced neuronal differentiation”.
With `CN1CC[C@]23c4c5ccc(O)c4O[C@H]2[C@@H](O)C=C[C@H]3[C@H]1C5` [morphine] the “effect on DHEA-driven normal NSC neuronal differentiation” value (NSC monolayer culture; simultaneous exposure with DHEA) was “inhibition of normal NSC differentiation”.
For cyclo(Pro-Gly) [M6], the “effect on neuronal differentiation, AMPA combined with M6” value [1] was “potentiates AMPA activity”.
`NC[C@H](O)c1ccc(O)c(O)c1` [norepinephrine] was tested, and the “effect on differentiation along an astrocyte lineage (astrogenesis), agent alone” value [3] was “no effect”, the EC50 ([1]; mean of two independent experiments, FIG. 3A, read-out: EC50, neuronal differentiation, agent by itself) was ~4 µM and the “effect on differentiation along a neuronal lineage, agent by itself” value [1] was “significantly enhanced neuronal differentiation”.
`COc1ccc2[nH]cc(CCNC(C)=O)c2c1` [melatonin] was tested, and the “effect on astrocyte differentiation, buspirone with melatonin” value ([3]; increasing melatonin added to buspirone concentration-response curve, FIG. 11 lower panel) was “repression of astrocytes”, the “effect on differentiation along an astrocyte lineage (astrogenesis), agent alone” value [3] was “no effect on astrogenesis” and the “effect on neuronal differentiation, buspirone with melatonin” value ([1]; increasing melatonin added to buspirone concentration-response curve, FIG. 11 upper panel) was “differentiation into neurons is preserved”.
For `C[C@]12CC[C@H](O)CC1=CC[C@@H]1[C@@H]2CC[C@]2(C)C(=O)CC[C@@H]12` [DHEA], the “effect on differentiation along a neuronal lineage, agent by itself” value [1] was “promotes differentiation”.
With `N[C@@H](Cc1c[nH]c2ccc(O)cc12)C(=O)O` [5-HTP, 5-Hydroxy L tryptophan] the “concentration at which the agent by itself affected neuronal differentiation” value [1] was ≥ 4 µM and the “effect on differentiation along a neuronal lineage, agent by itself” value [1] was “increased differentiation of NSCs into neurons; also recorded: significantly enhanced neuronal differentiation”.
For `O=C1CC[C@@]2(O)[C@H]3Cc4ccc(O)c5c4[C@@]2(CCN3CC2CC2)[C@H]1O5` [naltrexone], the “toxicity or proliferation (cell number dose-response)” value [5] was “non-neurogenic (non-tropic) and non-toxic; also recorded: neither toxic nor trophic” and the “rescue of morphine-inhibited neuronal differentiation” value (NSC monolayer culture; cells exposed to both morphine and naltrexone, FIG. 10) was “rescue of neurogenesis; also recorded: rescues opioid-induced inhibition”.
With `Cc1onc(O)c1CC(N)C(=O)O` (stereo not drawn) [AMPA, alpha-amino-3-hydroxy-5-methyl-4-isoxazolepropionic acid] the “effect on neuronal differentiation, AMPA combined with M6” value [1] was “significantly enhanced levels of neuronal differentiation”, the “concentration at which the agent by itself affected neuronal differentiation” value [1] was “about 30 μM” and the “effect on differentiation along a neuronal lineage, agent by itself” value [1] was “only a slight effect”.
